The record followed here is PubChem BioAssay AID2060513 (Molecular Pharmacology Branch, DTP, NCI, 2025).

Molecules are shown by their SMILES. Several values for one entry are separate records, joined by “and”; a condition that tells them apart may be missing. Equal entries are not always repeated.

For the experiment, the system named is 299254-011-R-J1-PDC complex spheroids viability. The experiment can be described thus: Anticancer human tumor 299254-011-R-J1-PDC patient-derived melanoma cell line growth inhibition [GQUAD]. Particulars: for viability, T/C: stronger effect = lower value. The source says:
DNA G-quadruplex Stabilizer Agents in Combinations in Complex Spheroids
A high-throughput screen of multi-cell type tumor spheroids was designed to identify active combinations of DNA G-quadruplex stabilizer agents and targeted small molecules. Complex spheroids include a stromal component modeled by human endothelial cells (HUVEC) and fibroblasts modeled by human mesenchymal stem cells (MSCs). The concentration ranges selected for each drug and investigational agent were based upon clinically achievable concentrations if the clinical Cmax of the agent was known.
Compounds. The drugs and investigational agents: pidnarulex (CX-5461; NSC782164), APTO-253 (NSC789042), BRACO-19 (NSC847499), peposertib (NSC802822), ceralasertib (NSC780249), elimusertib (NSC800525), camonsertib (NSC841442), AZD-1390 (NSC803789), olaparib (NSC753686), talazoparib (NSC767125), ART-558 (NSC835418), sotorasib (NSC818433), MRTX-1133 (NSC836407), SN-38 (NSC673596), topotecan (NSC609699), etoposide (NSC141540), doxorubicin (NSC123127), gemcitabine (NSC613327), 5-fluorouracil (NSC19893), paclitaxel (NSC125973), vemurafenib (NSC761431), panobinostat (NSC761190), R-306465 (JNJ-16241199; NSC773264), adavosertib (NSC754352), TP-3654 (NSC805149), carboplatin (NSC241240), KSQ-4279 (NSC840948), and staurosporine (NSC755774) were obtained from the National Cancer Institute (NCI) Developmental Therapeutics Program Chemical Repository (34). The FDA-approved anticancer drug set is available from the NCI Developmental Therapeutics Program. […] The stock solutions were prepared in dimethyl sulfoxide (DMSO, Sigma-Aldrich, St. Louis, MO, cat. D2650) at 800-fold the tested concentration and stored at -70 degrees C prior to their use. All drugs and investigational agents were tested over a range starting from a high concentration at or near the clinical Cmax and decreasing in half-log increments. If the clinical Cmax for an agent had not been determined, the highest concentration tested was 10 microM.
2.3 Cell Culture. All cells were maintained in an incubator at 37 degrees C and 5% CO2 with 95% humidity. The PDC lines were cultured according to standard operating procedures established by the NCI PDMR. All PDCs were thawed and cultured in Matrigel-coated flasks prepared with a working solution of 1X Ham's F-12 nutrient mix, without supplementation (Invitrogen, cat. 11765054), 100 U/mL penicillin-streptomycin (Invitrogen, cat. 15140122), and 2.5% Matrigel (Corning Inc., cat. 354248) for the first three passages. The 857933-349-R-J2-PDC line was cultured in 6C/Colon 1B media, which includes advanced DMEM/F-12 (Thermo Fisher Scientific, cat. 12634028), 10 mM HEPES (Thermo Fisher Scientific, cat. 15630080), 1X GlutaMAX supplement (Thermo Fisher Scientific, cat. 35050061), 0.1 mg/mL primocin (InvivoGen, cat. ant-pm-2), 10% defined fetal bovine serum, heat inactivated (HyClone Laboratories Inc., cat. SH30070.03HI), 50% L-WRN conditioned media (ATCC, cat. CRL-3276), 1.25 mM N-Acetyl-L-cysteine (Sigma-Aldrich, cat. A9165), 10 mM nicotinamide (Sigma-Aldrich, cat. N0636), 1X B-27 supplement (Thermo Fisher Scientific, cat. 17504044), 1X N-2 supplement (Thermo Fisher Scientific, cat. 17502048), 10 microM Y-27632 dihydrochloride (Tocris Bioscience, cat. 1254), and 50 ng/mL human EGF recombinant protein (Thermo Fisher Scientific, cat. PHG0311). The 485176-168-R4-J1-PDC line was cultured in Panc media, which includes all 6C/Colon 1B media components plus 100 ng/mL human FGF-10 (Thermo Fisher Scientific, cat. 100-26), 500 nM SB-431542 (Selleckchem, cat. S1067), and gastrin (Tocris, cat. 3006).
[…]
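Note: spheroids exposed to the agents for seven days before readout.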
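Throughout, for viability, T/C: percent viability relative to DMSO vehicle control wells = 100%.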

Usually viability, T/C stands for the result in the treated group divided by that in the control group, in per cent. For orientation: IC50 means the concentration needed to halve the response being measured. Take `C=CCn1c(=O)c2cnc(Nc3ccc(N4CCN(C)CC4)cc3)nc2n1-c1cccc(C(C)(C)O)n1`: the viability, T/C was 114% and 117% and 102% (compound 0.0316 µM); 98.4% and 92.5% and 100% (compound 0.1 µM); 87.5% and 73% and 83.4% (compound 0.316 µM); 60% and 62% and 52.8% (compound 1 µM); 32.2% and 34% and 37.9% (compound 3.16 µM); 36.5% and 32.4% and 20.3% (compound 10 µM). The IC50 (curve of compound) was 1.58 µM and 1.57 µM and 1.38 µM.

With `CC(C)(O)C1CCC(Nc2ccc3ncc(-c4cccc(C(F)(F)F)c4)n3n2)CC1` (centres undefined), the viability, T/C (compound 0.0316 µM) is 108% and 89.2% and 122%; the viability, T/C (compound 0.1 µM) was 113% and 90% and 91.5%; the viability, T/C (compound 0.316 µM) is 91.8% and 99.5% and 99.2%; the viability, T/C (compound 1 µM) is 98% and 96.9% and 84.3%; the viability, T/C (compound 3.16 µM) was 95.5% and 102% and 70.9%; the viability, T/C (compound 10 µM) was 119% and 110% and 103%. Under “curve of compound”, the IC50 is > 10 µM.

For `COc1ncnc(C2CC2)c1-c1ncc2cnn(Cc3ccc(-c4nc(C(F)(F)F)cn4C(C)C)cc3)c2n1`, the viability, T/C was 105% and 110% and 90.2% (compound 0.0316 µM); 115% and 110% and 86.3% (compound 0.1 µM); 95.2% and 96.1% and 84.1% (compound 0.316 µM); 102% (2×) and 85% (compound 1 µM); 107% and 93.2% and 89.6% (compound 3.16 µM); 82.6% and 87.6% and 91.8% (compound 10 µM). Further, for the setting “curve of compound”, the IC50 was > 10 µM.

Regarding `Cc1cnc(CNC(=O)c2c(=O)c3ccc(N4CCCN(C)CC4)nc3n3c2sc2ccccc23)cn1`, where the note is “compound 0.316 µM”, the viability, T/C is 100% [middle of 12 runs].

In the case of `CC(C)n1c(=O)n(C)c2cnc3cc(F)c(-c4ccc(OCCCN5CCCCC5)nc4)cc3c21` + CN(C)c1ccc(Nc2c3ccc(NC(=O)CCN4CCCC4)cc3nc3cc(NC(=O)CCN4CCCC4)ccc23)cc1, the IC50 was determined as 9.23 µM (curve of first compound, second compound 0.0316 µM); 8.05 µM (curve of first compound, second compound 0.1 µM); 8.13 µM (curve of first compound, second compound 0.316 µM); 7.22 µM (curve of first compound, second compound 1 µM); 5.7 µM (curve of first compound, second compound 3.16 µM); 2.13 µM (curve of first compound, second compound 10 µM). Also, the viability, T/C is 102% (second compound 0.0316 µM, first compound 0.0316 µM); 108% (second compound 0.0316 µM, first compound 0.1 µM); 91.2% (second compound 0.0316 µM, first compound 0.316 µM); 76.3% (second compound 0.0316 µM, first compound 1 µM); 94% (second compound 0.0316 µM, first compound 3.16 µM); 46.7% (second compound 0.0316 µM, first compound 10 µM). The viability, T/C reads like this: (second compound 0.1 µM, first compound 0.0316 µM) 93.4%; (second compound 0.1 µM, first compound 0.1 µM) 79.6%; (second compound 0.1 µM, first compound 0.316 µM) 106%; (second compound 0.1 µM, first compound 1 µM) 80.7%; (second compound 0.1 µM, first compound 3.16 µM) 81.3%; (second compound 0.1 µM, first compound 10 µM) 42.7%. Moreover, the viability, T/C is, setting by setting: (second compound 0.316 µM, first compound 0.0316 µM) 86.4%; (second compound 0.316 µM, first compound 0.1 µM) 102%; (second compound 0.316 µM, first compound 0.316 µM) 87%; (second compound 0.316 µM, first compound 1 µM) 93.2%; (second compound 0.316 µM, first compound 3.16 µM) 85.7%; (second compound 0.316 µM, first compound 10 µM) 42.1%. The viability, T/C (second compound 1 µM, first compound 0.0316 µM) was 91.6%; the viability, T/C (second compound 1 µM, first compound 0.1 µM) is 87.1%; the viability, T/C (second compound 1 µM, first compound 0.316 µM) was 79.4%; the viability, T/C (second compound 1 µM, first compound 1 µM) was 77.6%; the viability, T/C (second compound 1 µM, first compound 3.16 µM) is 85.9%; the viability, T/C (second compound 1 µM, first compound 10 µM) was 36.5%. Also, the viability, T/C is, setting by setting: (second compound 3.16 µM, first compound 0.0316 µM) 93.9%; (second compound 3.16 µM, first compound 0.1 µM) 81.8%; (second compound 3.16 µM, first compound 0.316 µM) 86.2%; (second compound 3.16 µM, first compound 1 µM) 77.2%; (second compound 3.16 µM, first compound 3.16 µM) 61.9%; (second compound 3.16 µM, first compound 10 µM) 38.1%. Moreover, the viability, T/C (second compound 10 µM, first compound 0.0316 µM) was 83.2%; the viability, T/C (second compound 10 µM, first compound 0.1 µM) was 79.9%; the viability, T/C (second compound 10 µM, first compound 0.316 µM) is 77%; the viability, T/C (second compound 10 µM, first compound 1 µM) was 64.5%; the viability, T/C (second compound 10 µM, first compound 3.16 µM) was 42.4%; the viability, T/C (second compound 10 µM, first compound 10 µM) was 28.9%.
